Three compounds from ChEMBL document CHEMBL4024703, “Recent Progress in the Development of Transglutaminase 2 (TGase2) Inhibitors” (J Med Chem, 2017) can be followed below.

pIC50: −log10 of the molar value.

Series [1] is described as follows: Metabolic stability in Wistar rat blood plasma after 45 mins by HPLC analysis. Type of series: ADME, cell-free. Particulars: read-out: Stability.
Series [2] in a line: Metabolic stability in Wistar rat blood plasma after 15 mins by HPLC analysis. Type of series: ADME, cell-free. Particulars: read-out: Stability.
Series [3] has as its system Mus musculus. The series is described as follows: Antihypertensive activity in C57BL/6 mouse angiotensin 2-induced hypertensive nephrosclerosis model assessed as reduction in collagen deposition in blood vessels at 25 mg/kg/day administered sc with angiotensin 2 for 14 days by Sirius red/collagen staining based assay. Type of series: functional. Particulars: C57BL/6, sc, 336 h.

For series [4], the target named is T1, Protein-glutamine gamma-glutamyltransferase (Homo sapiens, UniProt P21980).
T1 sequence (P21980 whole entry): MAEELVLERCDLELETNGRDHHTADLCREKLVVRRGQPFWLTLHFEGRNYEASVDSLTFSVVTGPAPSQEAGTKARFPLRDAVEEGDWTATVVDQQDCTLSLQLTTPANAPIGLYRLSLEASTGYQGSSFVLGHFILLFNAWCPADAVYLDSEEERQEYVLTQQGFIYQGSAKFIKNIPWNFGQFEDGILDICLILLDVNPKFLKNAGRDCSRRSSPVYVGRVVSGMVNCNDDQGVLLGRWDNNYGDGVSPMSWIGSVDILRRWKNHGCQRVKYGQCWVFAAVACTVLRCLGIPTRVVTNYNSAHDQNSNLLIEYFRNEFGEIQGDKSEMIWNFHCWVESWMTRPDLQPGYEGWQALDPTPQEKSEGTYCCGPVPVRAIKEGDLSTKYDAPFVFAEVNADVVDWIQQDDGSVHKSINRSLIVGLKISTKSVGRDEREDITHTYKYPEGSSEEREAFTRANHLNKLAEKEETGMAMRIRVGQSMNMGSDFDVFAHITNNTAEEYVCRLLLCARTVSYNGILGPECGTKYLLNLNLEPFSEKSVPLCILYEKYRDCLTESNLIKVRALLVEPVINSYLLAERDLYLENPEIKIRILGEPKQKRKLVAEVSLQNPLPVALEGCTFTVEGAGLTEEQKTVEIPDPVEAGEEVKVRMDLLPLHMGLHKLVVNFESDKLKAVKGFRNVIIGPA
The series is described as follows: Inhibition of recombinant human TG2 by fluorescence assay.

In series [5] the test system is Mus musculus. The series can be described thus: Antihypertensive activity in C57BL/6 mouse angiotensin 2-induced hypertensive nephrosclerosis model assessed as reduction in collagen deposition in kidney at 25 mg/kg/day administered sc with angiotensin 2 for 14 days by Sirius red/collagen staining based assay. Type of series: functional. The conditions noted are these: C57BL/6, sc, 336 h.

For series [6], the species on record is Homo sapiens. The series can be described thus: Selectivity ratio of IC50 for human TG6 to IC50 for human TG2.
Series [7] is filed under the species Homo sapiens. The series can be described thus: Selectivity ratio of IC50 for human TG3 to IC50 for human TG2.
The species entered for series [8] is Homo sapiens. The series can be described thus: Selectivity ratio of IC50 for human F13a to IC50 for human TG2.
The species entered for series [9] is Homo sapiens. The series can be described thus: Selectivity ratio of IC50 for human TG1 to IC50 for human TG2.

As to `C=CC(=O)NCCCC[C@H](NC(=O)Cc1ccccc1)C(=O)N1CCN(c2cccc(C)n2)CC1`, the remaining at 0.75 h in [1] was determined as 29%. Also, in series [2], the remaining at 0.25 h stood at 65%.
As for `C=CC(=O)NCC(=O)N1CCN(S(=O)(=O)c2cccc3c(N(C)C)cccc23)CC1`, the inhibition in vivo (commonly the percentage by which the read-out fell short of the control) at 25 mg/kg/day stood at 45% in the series on Mus musculus [3] and 40% in the series with Mus musculus [5]. In addition, the pIC50 (commonly −log10 of the IC50, conventionally taken in molar units) in [4] was 8.22.
`CCC(CC)CNC(=O)Cn1cccc(NC(=O)[C@H](CC/C=C/C(=O)OC)NC(=O)c2cncn2C)c1=O`: the Ratio IC50 in the series filed under Homo sapiens [6], in the series listed under Homo sapiens [7], in the series listed under Homo sapiens [8] and in the series listed under Homo sapiens [9] was more than 100 throughout.
